From patent publication US8343698B2, “Photoreceptor, method of manufacturing same, image formation method, image forming apparatus, and process cartridge” (Ricoh Company, Ltd., priority 2009, dated 2013)

System: salmonella of TA1535
Assay: Mutation test (Ames test), plate method
Format: cell-based
Settings: strain TA1535, plate method, under metabolic activity condition, 625 to 10,000 micro gram/plate, maximum number of colonies divided by colonies in control solvent, tested on the TMPTA monomer of each example
Text: One time absorption refinement treatment is effective but multiple time absorption refinement treatments are preferable to improve the removal effect of the impurities. A number of methods for use in the present invention of measuring the safety of the radical polymerizable monomer can be used. Ames test (mutagen test) is employed in the present invention.
Ames test is a test in which germs are used. The strain among salmonellas used in the test is histidine auxotroph (his−), which cannot synthesize histidine. In the test, the number of colonies of recoveries from histidine auxotroph (his−) to (his+) which can synthesize histidine again as a result of a test material reacting with the strain is counted to determine the mutation property of the material.
Currently, among these strains, TA1535, TA1537, TA100, TA98 or WP2uvrA—are generally used. When TA1535 is used, radical polymerizable monomers in the market are frequently positive. Therefore, TA1535 test is employed in the present invention.
“Mutation test in Ordinance on Safety and Hygiene—Guideline and GLP— (published by Japan industrial Safety & Health Association)” is referred to with regard to the specific test method.
A mutation test (Ames test) is employed to check the safety in the present invention.
A plate method is adopted as the test method in the present invention.
TA1535 is used as the strain and the test is conducted under the condition of metabolic activity.
Add 250 mg of dimethylsulfoxide (DIMSO) to 250 mg of a radical polymerizable monomer having at least 3 functional groups with no charge transport structure followed by ultrasonic treatment for one minute to prepare a clear solution for the test.
5 kinds of densities (625 micro gram/plate, 1,250 micro gram/plate, 2,500 micro gram/plate, 5,000 micro gram/plate, and 10,000 micro gram/plate) of the radical polymerizable monomer having at least 3 functional groups with no charge transport structure are used. Among these, the quotient (referred to as “colony increase multiple” in the present invention) obtained by dividing the maximum number of the colonies with the number of colonies in the control solvent is used for comparison. The smaller the quotient, the safer the test sample.

`C=CC(=O)OCC(CC)(COC(=O)C=C)COC(=O)C=C` [Ex. 10, trimethylol propane triacrylate] gave a Colony increase multiple of 1.9 and a Colony increase multiple (listed as Example 10) of 1.9.
For `C=CC(=O)OCC(CC)(COC(=O)C=C)COC(=O)C=C` [Ex. 7, trimethylol propane triacrylate], the Colony increase multiple was 1.9 and the Colony increase multiple (listed as Example 7) was 1.9.
Compound `C=CC(=O)OCC(CC)(COC(=O)C=C)COC(=O)C=C` [Ex. 12, trimethylol propane triacrylate] has a Colony increase multiple of 1.4 and a Colony increase multiple (listed as Example 12) of 1.4.
`C=CC(=O)OCC(CC)(COC(=O)C=C)COC(=O)C=C` [Ex. 11, trimethylol propane triacrylate] was tested, and the Colony increase multiple was 1.4 and the Colony increase multiple (listed as Example 11) was 1.4.
Compound `C=CC(=O)OCC(CC)(COC(=O)C=C)COC(=O)C=C` [Ex. 2, trimethylol propane triacrylate] has a Colony increase multiple of 1.1 and a Colony increase multiple (listed as Example 2) of 1.1.
`C=CC(=O)OCC(CC)(COC(=O)C=C)COC(=O)C=C` [Ex. 3, trimethylol propane triacrylate] was tested, and the Colony increase multiple was 1.2 and the Colony increase multiple (listed as Example 3) was 1.2.
Compound `C=CC(=O)OCC(CC)(COC(=O)C=C)COC(=O)C=C` [Ex. 4, trimethylol propane triacrylate] has a Colony increase multiple of 1.1 and a Colony increase multiple (listed as Example 4) of 1.1.
For `C=CC(=O)OCC(CC)(COC(=O)C=C)COC(=O)C=C` [Comp. 1, trimethylol propane triacrylate], the Colony increase multiple was 3.4 and the Colony increase multiple (listed as Comparative Example 1) was 3.4.
`C=CC(=O)OCC(CC)(COC(=O)C=C)COC(=O)C=C` [Comp. 3, trimethylol propane triacrylate] was tested, and the Colony increase multiple was 2.7 and the Colony increase multiple (listed as Comparative Example 3) was 2.7.
Work on `C=CC(=O)OCC(CC)(COC(=O)C=C)COC(=O)C=C` [Ex. 6, trimethylol propane triacrylate] yielded a Colony increase multiple of 2.5 and a Colony increase multiple (listed as Example 6) of 2.5.
With `C=CC(=O)OCC(CC)(COC(=O)C=C)COC(=O)C=C` [Ex. 8, trimethylol propane triacrylate] the Colony increase multiple was 2.6 and the Colony increase multiple (listed as Example 8) was 2.6.
In the case of `C=CC(=O)OCC(CC)(COC(=O)C=C)COC(=O)C=C` [Ex. 9, trimethylol propane triacrylate], the Colony increase multiple is reported as 2.1 and the Colony increase multiple (listed as Example 9) is reported as 2.1.
In the case of `C=CC(=O)OCC(CC)(COC(=O)C=C)COC(=O)C=C` [Ex. 5, trimethylol propane triacrylate], the Colony increase multiple is reported as 1.4 and the Colony increase multiple (listed as Example 5) is reported as 1.4.
`C=CC(=O)OCC(CC)(COC(=O)C=C)COC(=O)C=C` [Comp. 2, trimethylol propane triacrylate] gave a Colony increase multiple of 2.7 and a Colony increase multiple (listed as Comparative Example 2) of 2.7.
In the case of `C=CC(=O)OCC(CC)(COC(=O)C=C)COC(=O)C=C` [Ex. 1, trimethylol propane triacrylate], the Colony increase multiple is reported as 1.2 and the Colony increase multiple (listed as Example 1) is reported as 1.2.
